Common to all, as to type: functional
Details in all cases: read-out: GI

For one experiment, the system named is Phomopsis asparagi. The experiment in a line: Fungicidal activity against Phomopsis asparagi assessed as growth inhibition at 50 ppm relative to control.
In experiment [1] the test system is Botryosphaeria berengeriana. Description: Fungicidal activity against Botryosphaeria berengeriana assessed as growth inhibition at 50 ppm relative to control.
The subject of experiment [2] is Brassica rapa subsp. oleifera. Description: Herbicidal activity against Brassica rapa subsp. oleifera assessed as growth inhibition at 1.5 kg/ha applied to soil relative to control.

As to `CC(=O)OC[C@H]1O[C@@H](NC(=S)NNS(=O)(=O)c2ccc(C)cc2)[C@H](OC(C)=O)[C@@H](OC(C)=O)[C@@H]1OC(C)=O`, the inhibition of growth at 50 ppm (in the experiment with Phomopsis asparagi; in experiment [1]) was 30% throughout.

Regarding `CC(=O)OC[C@H]1O[C@@H](N2C(=O)CS/C2=N\NS(=O)(=O)c2ccc(C)cc2)[C@H](OC(C)=O)[C@@H](OC(C)=O)[C@@H]1OC(C)=O`, the inhibition of growth at 1500 g/ha in experiment [2] came to 39.8%. Also, the inhibition of growth at 50 ppm (in the experiment with Phomopsis asparagi; in experiment [1]) was 30% throughout.

On to `CC(=O)O[C@@H]1[C@@H](OC(C)=O)[C@H](OC(C)=O)CO[C@H]1NC(=S)NNS(=O)(=O)c1ccccc1`, for which the inhibition of growth at 50 ppm (in the experiment with Phomopsis asparagi; in experiment [1]) was 30% throughout.

(Values after ChEMBL document CHEMBL3046224, “Synthesis of novel 2-phenylsulfonylhydrazono-3-(2',3',4',6'-tetra-O-acetyl-beta-d-glucopyranosyl)thiazolidine-4-ones from thiosemicarbazide precursors” (2006).)
